# Data as given in US20150126448A1 (Genentech, Inc., priority 2003, published 2015).
# Experiments:
# BxPC3 cells [1] = assay: Inhibition of HGF-dependent cell proliferation in BxPC3 cells; type: cell-based, human; details: 5 μg/ml test protein, 25 ng/ml HGF WT; for inhibition of HGF-dependent cell proliferation activity (% activity II): normalized to 5 μg/ml mutant alone (0%) and 25 ng/ml HGF WT (100%); for inhibition of HGF-dependent cell proliferation activity (% activity I): normalized to no HGF (0%) and 25 ng/ml HGF WT (100%)
# Description: BxPC3 (human pancreatic adeocarcinoma; ECACC No. 93120816) were obtained from the European Collection of Cell Cultures (CAMR Centre for Applied Microbiology and Research, Porton Down, Salisbury, Wiltshire (UK) and were used in an HGF-dependent proliferation assay. Cells were grown in RPMI medium containing 10% FCS (Sigma F-6178, St. Louis, Mo.), 10 mM HEPES, 2 mM glutamine, 1× Penicillin-Streptomycin (Invitrogen 15140-122, Carlsbad, Calif.), 100× penicillin 10000 μg/ml-streptomycin 10000 mg/ml), and G418 (Invitrogen 10131-035) at 250 mg/ml. The cells were sequentially washed with PBS, PBS containing 10 mM EDTA, then removed using trypsin. The cells were harvested into serum containing media and the cell density was determined using a hemacytometer. Cells at 50000-75000/ml were seeded at 200 μl per well into a white bottom MT plate (Cultur Plate™ 6005680 Packard/PerkinElmer, Boston, Mass.) using the inside 60 wells only and allowed to grow for 24 h. The media was removed, the cells were washed with PBS and 200 ml of serum-free media containing 0.1% BSA (SF-BSA) was added back to the cells. The cells were grown for an additional 24 h. […] Controls were run in the absence of HGF and/or in the absence of test HGF proteins.
# The cells were allowed to grow for 72 h and then assayed using the CellTiter-Glo Luminescent Kit (Promega G7571, Madison, Wis.). The procedure followed is described in Promega Technical Bulletin TB288. The microtiter plate was read on a Tropix TR717 microplate luminometer (Berthold 75323 Bad Wildbad, Germany). The percent of stimulation or inhibition of cell proliferation was normalized to the appropriate controls.
# BxPC3 cells [2] = assay: HGF-dependent proliferation assay in BxPC3 cells (stimulation); type: cell-based, human; details: n=12
# Description: BxPC3 (human pancreatic adeocarcinoma; ECACC No. 93120816) were obtained from the European Collection of Cell Cultures (CAMR Centre for Applied Microbiology and Research, Porton Down, Salisbury, Wiltshire (UK) and were used in an HGF-dependent proliferation assay. Cells were grown in RPMI medium containing 10% FCS (Sigma F-6178, St. Louis, Mo.), 10 mM HEPES, 2 mM glutamine, 1× Penicillin-Streptomycin (Invitrogen 15140-122, Carlsbad, Calif.), 100× penicillin 10000 μg/ml-streptomycin 10000 mg/ml), and G418 (Invitrogen 10131-035) at 250 mg/ml. The cells were sequentially washed with PBS, PBS containing 10 mM EDTA, then removed using trypsin. The cells were harvested into serum containing media and the cell density was determined using a hemacytometer. Cells at 50000-75000/ml were seeded at 200 μl per well into a white bottom MT plate (Cultur Plate™ 6005680 Packard/PerkinElmer, Boston, Mass.) using the inside 60 wells only and allowed to grow for 24 h. The media was removed, the cells were washed with PBS and 200 ml of serum-free media containing 0.1% BSA (SF-BSA) was added back to the cells. The cells were grown for an additional 24 h. […]
# The cells were allowed to grow for 72 h and then assayed using the CellTiter-Glo Luminescent Kit (Promega G7571, Madison, Wis.). […] The microtiter plate was read on a Tropix TR717 microplate luminometer (Berthold 75323 Bad Wildbad, Germany). […]
# MDA-MB-435 cells = assay: MDA-MB-435 cell migration transwell assay; type: cell-based
# Description: (A) Representative purity of HGF mutants. […] Incomplete conversion of the secreted single-chain form by CHO expression in 1% FBS (v/v) is shown in lane 1. […] Molecular weight markers are shown as Mr×10^3. […] Values represent the averages of 4-8 independent experiments±SD.
# Breast cancer cells MDA-MB-435 (HTB-129, ATCC, Manassas, Va.) were cultured in recommended serum-supplemented medium. Confluent cells were detached in PBS containing 10 mM EDTA and diluted with serum-free medium to a final concentration of 0.6−0.8×10^5 cells/ml. 0.2 ml of this suspension ([…]) was added in triplicate to the upper chambers of 24-well transwell plates (8 μm pore size) (HTS Multiwell™ Insert System, Falcon, Franklin Lakes, N.J.) pre-coated with 10 μg/ml of rat tail collagen Type I (Upstate, Lake Placid, N.Y.). […] After incubation for 13-14 h, cells on the apical side of the membrane were removed and those that migrated to the basal side were fixed in 4% paraformaldehyde followed by staining with a 0.5% crystal violet solution. After washing and airdrying, cells were solubilized in 10% acetic acid and the A560 was measured on a Molecular Devices microplate reader. […] Photographs of stained cells were taken with a Spot digital camera (Diagnostics Instruments, Inc., Sterling Heights, Mich.) connected to a Leitz microscope (Leica Mikroskope & Systeme GmbH, Wetzlar, Germany). […]
# Met-IgG fusion protein = Met-IgG fusion protein (UniProt P08581); assay: HGF/Met-IgG competition binding ELISA; competitor: 1 nM biotinylated HGF
Substance,inhibition of HGF-dependent cell proliferation activity (% activity II) (BxPC3 cells [1]),inhibition of HGF-dependent cell proliferation activity (% activity I) (BxPC3 cells [1]),also measured
HGF R695A: full length two-chain HGF with R695A mutation in the β-chain,68%,79%,–
"HGF: wild type hepatocyte growth factor, disulfide-linked two-chain α/β heterodimer, recombinant from CHO cells",–,–,proliferation activity at 25 ng/ml as % of the activity at 100 ng/ml (BxPC3 cells [2]): 83.6±13.0%
HGF β: HGF β-chain residues Val495 to Ser728 with Cys604 to Ser mutation and C-terminal His6 tag,–,–,effect in cell migration assay (MDA-MB-435 cells; concentrations of up to 0.95 μM): had no effect
K641A [c173] (ligand),–,–,IC50mut/IC50WT (Met-IgG fusion protein): 1.04
proHGF: uncleavable single chain form of HGF with amino acid changes R494E and R424A,75%,63%,"stimulation of cell migration (MDA-MB-435 cells; 1 nM, MDA-MB435 cells, FIG. 2B, 2C): did not stimulate cell migration"
